Measurements taken from patent US11155517B2, “4-substituted phenylamine derivatives and their use to protect crops by fighting undesired phytopathogenic micoorganisms” (PI INDUSTRIES LTD., priority 2016, dated 2021).

Tests used:
Format in all cases: cell-based
[1] = system: Colletotrichum capsici; assay: Colletotrichum capsici (anthracnose) in vitro test, radial growth on Potato Dextrose Agar; conditions: Colletotrichum truncatum, 168 h; 300 ppm; seven days, 25° C.; read-out: % control compared to the untreated check (radial growth)
[2] = system: Septoria lycopersici; assay: Septoria lycopersici (leaf spot of tomato) in vitro test, radial growth on Potato Dextrose Agar; conditions: 168 h, seven days, 25° C., read-out: % control compared to the untreated check (radial growth)
[3] = system: Pyricularia oryzae; assay: microbe, parasite or virus in culture; conditions: 168 h, read-out: % control compared to the untreated check (radial growth)
[4] = system: Rhizoctonia solani; assay: Rhizoctonia solani (rice sheath blight/potato black scurf) in vitro test, radial growth on Potato Dextrose Agar; conditions: 168 h, 300 ppm, seven days, 25° C., read-out: % control compared to the untreated check (radial growth)
[5] = system: Alternaria solani; assay: Alternaria solani (early blight of tomato/potato) in vitro test, radial growth on Potato Dextrose Agar; conditions: 168 h, 300 ppm, seven days, 25° C., read-out: % control compared to the untreated check (radial growth)
[6] = system: Botrytis cinerea; assay: Botrytis cinerea (gray mold) in vitro test, radial growth on Potato Dextrose Agar; conditions: 168 h, 300 ppm, seven days, 22° C., read-out: % (control) compared to the untreated check (radial growth)

Compound	inhibition of growth at 300 ppm [1] [%]	inhibition of growth at 300 ppm [2] [%]	inhibition of growth at 300 ppm [3] [%]	inhibition of growth at 300 ppm [4] [%]	inhibition of growth at 300 ppm [5] [%]	inhibition of growth at 300 ppm [6] [%]
CCN(C)C=Nc1cc(C)c(Cc2ccc(Cl)c(Cl)c2)cc1Cl [Compound 20, N′-(2-chloro-4-(3,4-dichlorobenzyl)-5-methylphenyl)-N-ethyl-N-methylformimidamide]	> 80	> 70	> 75	> 80	> 75	
CCN(C)C=Nc1cc(C)c(Cc2cc(Cl)cc(Cl)c2)cc1Cl [Compound 21, N′-(2-chloro-4-(3,5-dichlorobenzyl)-5-methylphenyl)-N-ethyl-N-methylformimidamide]	> 80		> 75	> 80	> 75	> 80
Cc1cc(N=CN2CCCCC2)c(Cl)cc1Cc1cccc(F)c1 [Compound 39, N-(2-chloro-4-(3-fluorobenzyl)-5-methylphenyl)-1-(piperidin-1-yl)methanimine]	> 80		> 75	> 80	> 75	
Cc1cc(N(C#N)C=N)c(C)cc1Cc1ccccc1F [Compound 64, N-cyano-N-(4-(2-fluorobenzyl)-2,5-dimethylphenyl)formimidamide]		> 70	> 75			
Cc1cc(N=CN2CCSCC2)c(C)cc1Cc1ccccc1F [Compound 85, N-(4-(2-fluorobenzyl)-2,5-dimethylphenyl)-1-thiomorpholinomethanimine]	> 80		> 75	> 80	> 75	> 80
CCN(C)C=Nc1cc(C)c(Cc2ccc(Cl)c(F)c2)cc1Cl [Compound 95, N′-(2-chloro-4-(4-chloro-3-fluorobenzyl)-5-methylphenyl)-N-ethyl-N-methylformimidamide]	> 80		> 75	> 80	> 75	> 80
CCN(C)C=Nc1cc(C)c(Cc2ccccc2C#N)cc1Cl [Compound 100, N′-(2-chloro-4-(2-cyanobenzyl)-5-methylphenyl)-N-ethyl-N-methylformimidamide]	> 80		> 75	> 80	> 75	
CCN(C)C=Nc1cc(C)c(Cc2cccc(C(C)C#N)c2)cc1C (stereo not shown) [Compound 107, N′-(4-(3-(1-cyanoethyl)benzyl)-2,5-dimethylphenyl)-N-ethyl-N-methylformimidamide]	> 80		> 75	> 80	> 75	> 80
CCN(C)C=Nc1cc(C)c(Cc2ccccc2C)cc1Cl [Compound 122, N′-(2-chloro-5-methyl-4-(2-methylbenzyl)phenyl)-N-ethyl-N-methylformimidamide]	> 80		> 75	> 80	> 75	
CCN(C)C=Nc1cc(C)c(Cc2cccc(Cl)c2F)cc1Cl [Compound 123, N′-(2-chloro-4-(3-chloro-2-fluorobenzyl)-5-methylphenyl)-N-ethyl-N-methylformimidamide]	> 80		> 75	> 80	> 75	> 80
CCN(C)C=Nc1cc(C)c(Cc2cccc(OC(F)(F)F)c2)cc1Cl [Compound 124, N′-(2-chloro-5-methyl-4-(3-(trifluoromethoxy)benzyl)phenyl)-N-ethyl-N-methylformimidamide]	> 80		> 75	> 80	> 75	> 80
CCN(C)C=Nc1cc(C)c(C(C#N)c2ccccc2)cc1C (stereo not shown) [Compound 127, N′-(4-(cyano(phenyl)methyl)-2,5-dimethylphenyl)-N-ethyl-N-methylformimidamide]	> 80		> 75	> 80	> 75	
CCN(C)C=Nc1cc(C)c(Cc2cc(C)cc(F)c2)cc1Cl [Compound 140, N′-(2-chloro-4-(3-fluoro-5-methylbenzyl)-5-methylphenyl)-N-ethyl-N-methylformimidamide]	> 80		> 75	> 80	> 75	> 80
CCN(C)C=Nc1cc(C)c(Cc2c(F)cccc2F)cc1Cl [Compound 203, N′-(2-chloro-4-(2,6-difluorobenzyl)-5-methylphenyl)-N-ethyl-N-methylformimidamide]	> 80		> 75		> 75	
CCN(C)C=Nc1cc(C)c(Cc2cccnc2)cc1Cl [Compound 204, N′-(2-chloro-5-methyl-4-(pyridin-3-ylmethyl)phenyl)-N-ethyl-N-methylformimidamide]	> 80		> 75	> 80	> 75	> 80
CCN(C)C=Nc1cc(C)c(Cc2cccc(C(F)(F)F)c2)cc1F [Compound 205, N-ethyl-N′-(2-fluoro-5-methyl-4-(3-(trifluoromethyl)benzyl)phenyl)-N-methylformimidamide]	> 80		> 75	> 80	> 75	
CCN(C)C=Nc1cc(C)c(Cc2cccc(F)c2)cc1S(C)(=O)=O [Compound 216, N-ethyl-N′-(4-(3-fluorobenzyl)-5-methyl-2-(methylsulfonyl)phenyl)-N-methylformimidamide]		> 70	> 75	> 80	> 75	
CCN(C)C=Nc1cc(C(F)(F)F)c(Cc2ccccc2C)cc1F [Compound 228, N-ethyl-N′-(2-fluoro-4-(2-methylbenzyl)-5-(trifluoromethyl)phenyl)-N-methylformimidamide]		> 70	> 75	> 80	> 75	
CCN(C)C=Nc1cc(C(F)(F)F)c(Cc2cccc(Cl)c2)cc1F [Compound 229, N′-(4-(3-chlorobenzyl)-2-fluoro-5-(trifluoromethyl)phenyl)-N-ethyl-N-methylformimidamide]		> 70	> 75	> 80	> 75	
CCN(C)C=Nc1cc(F)c(Cc2cccc(C)c2)cc1F [Compound 244, N′-(2,5-difluoro-4-(3-methylbenzyl)phenyl)-N-ethyl-N-methylformimidamide]		> 70	> 75	> 80	> 75	> 80
CCN(C)C=Nc1cc(C#N)c(Cc2ccccc2F)cc1C [Compound 247, N′-(5-cyano-4-(2-fluorobenzyl)-2-methylphenyl)-N-ethyl-N-methylformimidamide]			> 75	> 80	> 75	> 80
CCN(C)C=Nc1cc(C#N)c(Cc2ccccc2C)cc1C [Compound 248, N′-(5-cyano-2-methyl-4-(2-methylbenzyl)phenyl)-N-ethyl-N-methylformimidamide]		> 70	> 75	> 80	> 75	> 80
CCN(C)C=Nc1cc(C#N)c(Cc2cccc(C)c2)cc1C [Compound 251, N′-(5-cyano-2-methyl-4-(3-methylbenzyl)phenyl)-N-ethyl-N-methylformimidamide]			> 75	> 80	> 75	> 80
CCN(C)C=Nc1cc(C(F)(F)F)c(Cc2cccc(Cl)c2)cc1C1CC1 [Compound 265, N′-(4-(3-chlorobenzyl)-2-cyclopropyl-5-(trifluoromethyl)phenyl)-N-ethyl-N-methylformimidamide]			> 75	> 80	> 75	> 80
CCN(C)C=Nc1c(C)cc(Cc2ccc(C3CC3)cc2)c(C)c1C1CC1 [Compound 267, N′-(2-cyclopropyl-4-(4-cyclopropylbenzyl)-3,6-dimethylphenyl)-N-ethyl-N-methylformimidamide]			> 75	> 80	> 75	> 80
CCN(C)C=Nc1cc(C)c(Cc2cccc(C)c2)cc1S(C)(=O)=O [Compound 273, N-ethyl-N-methyl-N′-(5-methyl-4-(3-methylbenzyl)-2-(methylsulfonyl)phenyl)formimidamide]			> 75	> 80	> 75	> 80
